Series [1] deals with HeLa cells. Kind of series: Prestoblue cell viability assay on HeLa cells (compounds alone and with paclitaxel). Type of series: cell-based. The note with it: HeLa cells; for GI50: Homo sapiens, HeLa, 72 h, compound alone, read-out: GI50 (50% of growth inhibition). The method, then: Cell viability was analyzed using the colorimetric Prestoblue assay (Invitrogen, #A13262). Cells were seeded in 96 well microplates (Greiner, #655077) at a density of 2,500 cells per well and allowed to adhere for 24 h before being treated for 72 h with either DMSO (0.1% final concentration) or drugs at indicated concentrations. After the 72 h treatment, 10 μL A Prestoblue was added to each well and cells were incubated for another 45 min. The absorbance of each well was measured using FLUOstar Optima microplate reader (Excitation, 544 nm; Emission, 580 nm).
First, the cytotoxicity on HeLa cells of compounds (I-a), (I-c) (I-f), (I-h), (I-e), (I-m), (I-n) and (I-s) was assessed with the above described “prestoblue” assay.
Then, HeLa cells were treated during 72 hours with different concentrations of a mixture of paclitaxel (0.05, 0.1, 0.25, 0.5, 1, 2.5, 5 nM) and compounds (I-a), (I-f), (I-h), (I-e), (I-m), (I-n), (I-c) and (I-s).

Series [2] relates to HeLa cells. Kind of series: Immunofluorescence of microtubules and DNA. Type of series: cell-based. The method, then: The effect of a compound of formula (I) on cell cycle and mitosis of HeLa cells was analyzed by flow cytometry and immunofluorescence.
For immunofluorescence analysis, cells were grown for 48 hours on glass coverslips placed in 24-wells microplates. When cells reached 70% confluence the medium was replaced with a fresh one supplemented with compound (I-a). After a 5-hour exposure to compound (I-a), cells were fixed and permeabilized with −20° C. absolute methanol for 6 min. After washing and saturation with 3% BSA/PBS, cells were incubated for 45 min at room temperature (RT) with anti-alpha-tubulin antibody (1:4000). Cells were washed twice again and subsequently incubated with Alexa 488 conjugated anti-mouse antibody (1:1000) for 30 min at RT. DNA was stained with 20 μmol·L^−1 Hoechst 33342 and coverslips were mounted on microscopic slides with Mowiol 4-88 (Calbiochem, #475904). Images were captured with a Zeiss AxioimagerM2 microscope equipped with the acquisition software AxioVision and analyzed using the Fiji software.

The test system of a further series is 4T1 cells. Kind of series: Prestoblue cell viability assay on murine cancer cells. Type of series: cell-based. The note with it: mice breast cancer cell line (4T1 cells), 72 h. As to the method: Cell viability was analyzed using the colorimetric Prestoblue assay (Invitrogen, #A13262). Cells were seeded in 96 well microplates (Greiner, #655077) at a density of 2,500 cells per well and allowed to adhere for 24 h before being treated for 72 h with either DMSO (0.1% final concentration) or drugs at indicated concentrations. After the 72 h treatment, 10 μL Prestoblue was added to each well and cells were incubated for another 45 min. The absorbance of each well was measured using FLUOstar Optima microplate reader (Excitation, 544 nm; Emission, 580 nm).

In the next series the test system is RPE-1 cells. Kind of series: Prestoblue viability assay on non-cancerous RPE-1 cells. Type of series: cell-based. As to the method:
RPE-1 cells were incubated for 72 hours with the indicated combinations of compound (I-a)/paclitaxel. The percentage of viable cells was calculated following a Prestoblue assay, as described above. Data are presented as mean±SEM of 3 independent experiments.

In series [3] the test system is HeLa cells. Description: FITC Annexin V apoptosis assay by flow cytometry. Type of series: cell-based. The method, then:
Apoptosis assay was performed with FITC Annexin V Apoptosis Detection Kit I (BD Biosciences, #556547) using flow cytometry and analyzed by FCS express software.

Series [4] relates to microtubule dynamics in GFP-EB3 transfected cells. Description: Microtubule dynamic instability by time-lapse fluorescence microscopy. Type of series: cell-based. The note with it: 25 μM. As to the method: The effect of a high dose (25 μM) of compound (I-a) on microtubule dynamic instability parameters was measured using time-lapse fluorescence microscopy on GFP-EB3 transfected cells (Table 1).

A further series relates to HeLa cell tumors. Description: HeLa cell xenograft tumor growth in mice. Type of series: in vivo. As to the method:
The effects on tumor growth of compound (I-a) and paclitaxel injected separately to the effect of a combined administration of compound (I-a) plus paclitaxel were compared in a tumor mouse model.
A first series of experiments (not shown) assessed that HeLa cell tumors were sensitive to therapeutic doses of paclitaxel. To that aim, mice bearing sizable tumors, formed of HeLa cells that have been xenografted, received intraveinous (i.v.) injections of paclitaxel (from 2 to 8 mg/Kg), every two days during 10 days. In the same experiment, the effect of compound (I-a) (from 15 to 60 mg/Kg, i.v.) injected with the same schedule was analyzed. […] The results confirmed the anti-tumor effect of high paclitaxel concentrations in this model. They also indicate that compound (I-a), when applied alone, has no significant anti-tumor activity, even at high concentrations.
A second experiment was conducted to study of the effect on tumor size of low (2 to 3 mg/Kg) paclitaxel doses in combination with different concentrations of compound (I-a).
Protocol for this combination study: 72 NMRI nude mice (5-week-old females) were injected subcutaneously with 10×10^6 exponentially dividing HeLa cells into the right flank. When tumors have reached a volume of about 200 mm 3 i.e. nine days after cell injection, mice were randomized in 9 groups of 8 mice each and drugs were injected intraveinously every two days. The first group received paclitaxel at 2 mg/kg, the second group received paclitaxel at 3 mg/Kg, the third group received compound (I-a) at 40 mg/Kg, the fourth group received compound (I-a) at 60 mg/Kg, the fifth group received a combination of compound (I-a) (40 mg/Kg) and paclitaxel (2 mg/Kg), the sixth group received a combination of compound (I-a) (40 mg/Kg) and paclitaxel (3 mg/Kg), the seventh group received a combination of compound (I-a) (60 mg/Kg) and paclitaxel (2 mg/Kg), the eight group received a combination of compound (I-a) (60 mg/Kg) and paclitaxel (3 mg/Kg) and the ninth group received the vehicle (14% DMSO, 14% Tween 80 and 72% PBS). Tumor growth was monitored three times per week with a sliding caliper.

In series [5] the test system is HeLa cells. Description: Cell cycle distribution by flow cytometry. Type of series: cell-based. The note with it: HeLa. The method, then: For flow cytometry analysis, Hela cells were treated with the indicated concentrations of compound (I-a) for 12 hours, 24 hours and 48 hours. Cells were then harvested and washed by centrifugation in PBS. Then, 10^5 cells were fixed in 1 mL of 70% methanol at 4° C. overnight. Following two washes with PBS the cells were incubated with 50 μg·mL^−1 propidium iodide and 0.2 mg·mL^−1 RNase A/PBS for 30 min at 37° C. before analysis. The percentage of cells in the specific cell-cycle phases (G0, G1, S, G2, and M) was determined using an Accuri C6 flow cytometer (Becton Dickinson). The results are expressed as the mean±SD of three separate experiments. The significance was determined by a Student's t-test (*p<0.05, **p<0.01, ***p<0.0001, compared with the control). Flow cytometry analysis was performed using HeLa cells. […] The results are expressed as the mean±SD of three separate experiments. The significance was determined by a Student's t-test (*p<0.05, **p<0.01, ***p<0.0001, compared with the control).

In the case of `Cc1cc(-n2ccc(C=O)c2)c(C)c2c1[nH]c1ccc(Cl)cc12` [(I-c)], the GI50 in the series with HeLa cells [1] was determined as 2 µM.

As to `Cc1cc(-n2cccc2)c(C)c2c1[nH]c1cc(Cl)ccc12` [(I-e)], in the series with HeLa cells [1], the GI50 was 14.8 µM.

As to `Cc1cc(-n2cccc2)c(C)c2c1[nH]c1ccc(Br)cc12` [(I-f)], the GI50 in the series on HeLa cells [1] was 16.2 µM.

With `Cc1cc(-n2cccc2)c(C)c2c1[nH]c1ccc(Cl)cc12` [Compound (I-a)], the “cytotoxicity of the compound on its own” value in the series on HeLa cells [1] (12 μM) is listed as “not cytotoxic”. Besides, the GI50 with HeLa cells [1] lay within 19.4 to 21.8 µM. The “chromosome congression in mitotic cells” value with HeLa cells [2] (12 μM) was “chromosome congression defects were visible in several mitotic cells”. The “chromosome congression in mitotic cells” value with HeLa cells [2] (25 μM) is listed as “occurrence of such defects was increased”. Further, in the series on HeLa cells [2] (12-25 μM, 5-hour exposure), the “effect on microtubule network in interphase cells” value is reported as “does not visibly perturb microtubule network”. The “effect of the combination with paclitaxel on cell viability” value in the series with 4T1 cells was “synergistic effect”. The “toxicity toward non-cancerous cells” value in the series with RPE-1 cells (72 hours) is listed as “does not induce additional toxicity”. In the series on RPE-1 cells (compound at 25 μM), the “effect on cell viability in combination with PTX” value is listed as “able to synergistically affect cell viability”. For the same compound, the “effect on cell apoptosis when combined with paclitaxel” value with HeLa cells [3] was “synergistic effect”. In addition, in series [4], the “% time spent growing” value is 60.40 ± 0.25 %, the “% time spent in pause” value was determined as 39.60 ± 0.31 %, the “Catastrophe frequency (min^−1 ± SE)” value came out at 2.74 ± 0.70 min⁻¹ and the “Growth rate (μm/min ± SE)” value worked out at 10.20 ± 0.05 μm/min. Besides, the “Catastrophe frequency (μm^−1 ± SE)” value in series [4] (distance-based) is 0.46 ± 0.05 *** μm^−1. Also, in the series with HeLa cell tumors (combination study, each compound administered separately (paclitaxel 2 or 3 mg/Kg, (I-a) 40 or 60 mg/Kg)), the tumor size entry was “no effect”. Besides, the tumor size result in the series on HeLa cell tumors (first experiment, compound (I-a) alone 15 to 60 mg/Kg i.v. every two days) is “did not induce a significant effect on tumor size”. In addition, the “weight of treated animals versus vehicle-treated animals” value with HeLa cell tumors (first experiment, paclitaxel 2 to 8 mg/Kg or (I-a) 15 to 60 mg/Kg i.v. every two days during 10 days) is “not significantly different”. Besides, the cell cycle effect entry with HeLa cells [5] (compound (I-a) 12 μM) is recorded as “blocked in G2/M phase”. Further, the cell cycle effect result with HeLa cells [5] (compound (I-a) 25 μM) is “the large majority of the cells is blocked in prometaphase”.

Turning to `Cc1cc(-n2ccc(C=O)c2)c(C)c2c1[nH]c1ccc(Br)cc12` [Compound (I-h)], the GI50 with HeLa cells [1] worked out at 1.06 µM.

In the case of `Cc1cc(-n2ccc(CO)c2)c(C)c2c1[nH]c1ccc(Cl)cc12` [Compound (I-s)], the GI50 in the series on HeLa cells [1] was found to be 2 µM.

For the origin of these results see patent publication US12409162B2, “Carbazole derivatives sensitizing cells to anti-cancer agents” (CENTRE NATIONAL DE LA RECHERCHE SCIENTIFIQUE, priority 2019, dated 2025).
